From patent US10905691B2, “Use of triazolo(4,5-d)pyrimidine derivatives for prevention and treatment of bacterial infection” (Universite de Liege, priority 2016, dated 2021)
Converted amounts (≈) assume the structure as drawn.

What was measured:
E. faecalis ATCC 29212 = experiment: MIC determination (EUCAST, Mueller-Hinton broth); assay type: cell-based; conditions: Enterococcus faecalis, ATCC29212
Description: (§1) Further experiments were conducted using different strains of E. faecalis, as clinically relevant Gram-positive bacterial strains: E. faecalis vancomycin-resistant (VRE) ATCC BAA-2365, and E. faecalis ATCC 29212 in order to determine the Minimal Inhibitory Concentration (MIC) which is the minimal concentration required to prevent bacterial growth; the Minimal Bactericidal Concentration (MBC) which determines the lowest concentration at which an antimicrobial agent kill a particular microorganism and a Minimum Duration for killing 99.9% bacteria (MDK99.9) which is a tolerance metric according to the EUCAST.
MIC determination: A single colony selected from the different strains of E. faecalis is resuspended and cultured in the appropriate medium overnight (O/N) in aerobic conditions (37° C. with 220 rpm shaking), next day a 1:100 inoculum in Mueller-Hinton broth (MHB) was incubated in aerobic conditions for 3 hr (OD=0.08-0.1) and an inoculum of 1:300 dilution, corresponding to 3×10^5 CFU/ml, was incubated in presence or absence of different concentrations of Triafluocyl in 1% DMSO. After O/N growth the OD of each culture was measured at 600 nm in a spectrophotometer (OD600). The MIC represents the concentration at which there is no visible growth of bacteria, i.e. ΔOD at 600 nm equal to zero (blank is the medium alone). […]

[1] = system: S. agalactiae (ATCC 12386); experiment: MIC determination (EUCAST, Mueller-Hinton broth); assay type: cell-based; conditions: Streptococcus agalactiae, ATCC12386
Description: as §1, with “S. agalactiae (ATCC 12386),” for “different strains of E. faecalis,”, “strains” for “strains: E. faecalis vancomycin-resistant (VRE) ATCC BAA-2365, and E. faecalis ATCC 29212”
MIC determination: A single colony selected from the different strains of S. agalactiae (ATCC 12386) is resuspended and cultured in the appropriate medium overnight (O/N) in aerobic conditions (37° C. with 220 rpm shaking), next day a 1:100 inoculum in Mueller-Hinton broth (MHB) was incubated in aerobic conditions for 3 hr (OD=0.08-0.1) and an inoculum of 1:300 dilution, corresponding to 3×10^5 CFU/ml, was incubated in presence or absence of different concentrations of Triafluocyl in 1% DMSO. After O/N growth the OD of each culture was measured at 600 nm in a spectrophotometer (OD600). The MIC represents the concentration at which there is no visible growth of bacteria, i.e. ΔOD at 600 nm equal to zero (blank is the medium alone). MIC for Triafluocyl against S. agalactiae (ATCC 12386) was 40 μg/ml.

S. epidermidis biofilm = experiment: Biofilm formation (crystal violet, 24-well plate); assay type: cell-based, Staphylococcus epidermidis
Description: To study the effect of Triafluocyl on biofilm formation, S. epidermidis in early logarithmic phase (5×10^8 CFU/ml) was plated in a 24-well plate and let to adhere at the bottom of the well for 4 hr at 37° C. in static conditions. After 4 hr incubation, planktonic bacteria were removed and adherent bacteria were washed twice in TSB. Fresh TSB medium supplemented or not with 0.25% glucose was added to the well with 5 different concentrations of Triafluocyl and incubated for 24 hours. Wells were washed 3 times with NaCl 0.9% and incubated for 1 hr at RT with Crystal Violet 1% solution in dH2O to stain the biofilm. Wells were washed 3 times with dH2O to eliminate unbound crystal violet, then 400 μl Acetic Acid 10% was added and incubated at RT for 10 min. Absorbance was measured in triplicate at 570 nm, reflecting total biomass of the biofilm (live and dead bacteria). The concentration of Triafluocyl that inhibits at least 90% biofilm formation is called minimum biofilm inhibitory concentration (MBIC). Triafluocyl MBIC for S. epidermidis is 50 μg/ml both in the presence and in the absence of glucose.

[2] = system: S. epidermidis mature biofilm; experiment: Mature biofilm (24-hour) treatment, LIVE/DEAD BacLight staining; assay type: cell-based, Staphylococcus epidermidis; conditions: 24 hr treatment of 24-hour biofilm
Excerpt: In another experiment we let adhere 0.5×10^8 CFU/ml S. epidermidis cells for 4 hr and let the biofilm form for additional 24 hr in presence of 0.25% glucose, at this point we treated the biofilm with several concentrations of Triafluocyl for 24 hr in TSB with 0.25% glucose and determined the viable count (FIG. 7) as well as the percentage of live cells using the BacLight bacterial viability kit (Molecular Probes).
In the same experiment we also determined the percentage of live and dead bacteria. To do so we followed the procedure of the kit LIVE/DEAD from Molecular Probes. Briefly, the biofilm was resuspended in a solution of 0.9% NaCl and cells were stained with a mixture of SYTO9 (green fluorescence) and propidium iodide (PI) (red fluorescence) for 15 min in the dark. Stained cells were transferred in a 96-well plate and fluorescence was measured using the Enspire Spectrophotometer with excitation wavelength of 470 nm and emission spectra in the range of 490-700 nm. SYTO9 dye (green fluorescence 500-520 nm) penetrates all the cells (dead and live) and binds to DNA, while PI (red fluorescence in the range 610-630 nm) enters only in dead cells with a damaged cell membrane. When PI and SYTO9 are in the same cell the green fluorescence intensity decreases. […]

[3] = system: E. faecalis VRE (ATCC BAA-2365); experiment: Killing curve (CFU counting); assay type: cell-based, Enterococcus faecalis; conditions: Triafluocyl 20 μg/ml; Minocycline 10 μg/ml; FIG. 8C
Description: E. faecalis VRE (ATCC BAA-2365) was grown overnight in brain heart infusion (BHI) medium, diluted 1:100 in fresh BHI, and incubated aerobically at 37° C. until bacteria growth reached a logarithmic phase (OD600=0.2-0.25).
Triafluocyl (Cayman Chemical, Item No. 15425) (20 μg/ml), Minocycline (Sigma, 10 μg/ml) or vehicle (DMSO) was then added in 5 ml of bacteria suspensions. Bacterial growth was measured after different time intervals by counting the colony-forming units after plating appropriate culture dilutions on BHI agar plates.

MIC (E. faecalis ATCC 29212): 40 µg/mL (≈ 76.5 µM) | MIC [1]: 40 µg/mL (≈ 76.5 µM)
SMILES: CCCSc1nc(N[C@@H]2C[C@H]2c2ccc(F)c(F)c2)c2nnn([C@@H]3C[C@H](OCCO)[C@@H](O)[C@H]3O)c2n1 [Triafluocyl, (1S,2S,3R,5S)-3-[7-[(1R,2S)-2-(3,4-difluorophenyl)cyclopropylamino]-5-(propylthio)-3H-[1,2,3]-triazolo[4,5-d]pyrimidin-3-yl]-5-(2-hydroxyethoxy)-1,2-cyclopentanediol]
biofilm reduction (S. epidermidis biofilm; 20 μg/ml, presence of glucose (0.25%), 24 hours): 50% | inhibition at 5 µg/mL (S. epidermidis biofilm; Staphylococcus epidermidis, 5 μg/ml, absence of glucose, 24 hours): 50% | minimum biofilm inhibitory concentration (MBIC), at least 90% inhibition of biofilm formation (S. epidermidis biofilm; absence of glucose): 50 µg/mL | minimum biofilm inhibitory concentration (MBIC), at least 90% inhibition of biofilm formation (S. epidermidis biofilm; presence of glucose): 50 µg/mL | percentage of live bacteria in the biofilm ([2]; 20 μg/ml): 80% | percentage of live bacteria in the biofilm ([2]; 50 μg/ml): 30% | antibacterial effect on E. faecalis VRE (killing curve) [3]: bactericidal effect
